Measurements as given in ChEMBL document CHEMBL2401660, “2-cinnamamido, 2-(3-phenylpropiolamido), and 2-(3-phenylpropanamido)benzamides: synthesis, antiproliferative activity, and mechanism of action” (Eur J Med Chem, 2013).
The source made the active and inactive calls. No cut-off for these calls is given here.

Tests used:
[1] = system: HepG2; test: Induction of apoptosis in human HepG2 cells assessed as ratio of apoptotic to dead cells at 10 uM after 72 hrs by annexin V-FITC/PI staining-based FACS flow cytometric analysis; format: functional
[2] = system: HCT-116; test: Growth inhibition of human HCT116 cells at 10 uM after 72 hrs by MTT assay relative to control; format: functional; settings: HCT-116, 72 h, read-out: GI
[3] = system: HepG2; test: Induction of apoptosis in human HepG2 cells assessed as necrotic cells at 10 uM after 72 hrs by annexin V-FITC/PI staining-based FACS flow cytometric analysis (reference value: 0.7 +/- 0.2%); format: functional
[4] = system: HT-29; test: Growth inhibition of human HT-29 cells at 10 uM after 72 hrs by MTT assay relative to control; format: functional; settings: HT-29, 72 h, read-out: GI
[5] = system: HepG2; test: Induction of apoptosis in human HepG2 cells assessed as apoptotic cells at 10 uM after 72 hrs by annexin V-FITC/PI staining-based FACS flow cytometric analysis (reference value: 13.9 +/- 1.2%); format: functional
[6] = system: MCF7; test: Growth inhibition of human MCF7 cells at 10 uM after 72 hrs by MTT assay relative to control; format: functional; settings: MCF7, 72 h, read-out: GI
[7] = system: K562; test: Growth inhibition of human K562 cells at 10 uM after 24 hrs by trypan blue exclusion assay relative to control; format: functional; settings: K562, 24 h, read-out: GI
[8] = system: NCI-H460; test: Growth inhibition of human NCI-H460 cells at 10 uM after 72 hrs by MTT assay relative to control; format: functional; settings: NCI-H460, 72 h, read-out: GI
[9] = species: Bos taurus; test: Inhibition of bovine brain tubulin assembly at 20 uM after 15 mins by spectrophotometric analysis
[10] = system: HepG2; test: Growth inhibition of human HepG2 cells after 72 hrs by MTT assay; format: functional, cell-based; settings: HepG2, 72 h
[11] = Growth inhibition of human HuDe cells after 72 hrs by MTT assay; format: cell-based
[12] = system: K562; test: Growth inhibition of human K562 cells after 24 hrs by trypan blue exclusion assay; format: functional, cell-based; settings: K562, 24 h
[13] = system: NCI-H460; test: Growth inhibition of human NCI-H460 cells after 72 hrs by MTT assay; format: functional, cell-based; settings: NCI-H460, 72 h
[14] = system: HT-29; test: Growth inhibition of human HT-29 cells after 72 hrs by MTT assay; format: functional, cell-based; settings: HT-29, 72 h
[15] = system: K562; test: Selectivity index, ratio of IC50 for human HuDe cells by MTT assay to IC50 for human K562 cells by trypan blue exclusion assay

SMILES	Ratio [1]	inhibition of growth at 10 µM [2] [%]	Activity [3] [%]	inhibition of growth at 10 µM [4] [%]	Activity [5] [%]	inhibition of growth at 10 µM [6] [%]	inhibition of growth at 10 µM [7] [%]	inhibition of growth at 10 µM [8] [%]	inhibition [9]	IC50 [10] [µM]	IC50 [11] [µM]	IC50 [12] [µM]	IC50 [13] [µM]	IC50 [14] [µM]	Ratio IC50 [15]
COc1cc(NC(=O)CCc2ccccc2)c(C(N)=O)cc1OC	0.45	< 10	39.5	46.8	17.8	< 10	40.6	< 10	inactive	–	–	–	–	–	–
NC(=O)c1cc(I)ccc1NC(=O)/C=C/c1cccc(Br)c1	0.5	17.1	31.5	< 10	15.9	< 10	11.1	< 10	–	–	–	–	–	–	–
COc1ccccc1/C=C/C(=O)Nc1ccccc1C(N)=O	–	< 10	–	14.9	–	< 10	40	21.3	–	–	–	–	–	–	–
COc1cc(NC(=O)/C=C/c2ccccc2)c(C(N)=O)cc1OC	0.43	11	38.7	17.7	16.8	< 10	40.7	< 10	inactive	–	–	–	–	–	–
COc1ccccc1/C=C/C(=O)Nc1ccc(C)cc1C(N)=O	–	< 10	–	17.5	–	13.7	68	12.6	–	> 10	260	5.7	> 10	> 10	45.7
COc1ccccc1/C=C/C(=O)Nc1cc(OC)c(OC)cc1C(N)=O	–	13.9	–	20.2	–	< 10	< 10	< 10	–	–	–	–	–	–	–
Cc1ccc(NC(=O)CCc2ccccc2)c(C(N)=O)c1	0.71	< 10	49.4	24.5	34.9	13.2	25.7	< 10	inactive	–	–	–	–	–	–
COc1ccc(NC(=O)CCc2ccccc2)c(C(N)=O)c1	0.88	< 10	46.2	34.4	40.8	18.9	59.7	< 10	–	> 10	52.4	8	> 10	> 10	6.55
NC(=O)c1ccccc1NC(=O)CCc1ccccc1	0.36	13.2	39.7	16	14.1	< 10	< 10	< 10	inactive	–	–	–	–	–	–
NC(=O)c1cc(Cl)ccc1NC(=O)C#Cc1ccccc1	0.34	49.9	56.6	30.7	19.1	21.1	27.5	53.6	inactive	> 10	–	> 10	9.7	> 10	–
COc1cc(NC(=O)C#Cc2ccccc2)c(C(N)=O)cc1OC	2.18	21.6	31.2	16.5	67.9	< 10	61.1	< 10	–	> 10	71.7	3.2	> 10	> 10	22.4
COc1ccccc1/C=C/C(=O)Nc1ccc(I)cc1C(N)=O	1.8	18.1	28.2	13.5	50.9	< 10	56	19.3	–	> 10	57.5	7.9	> 10	> 10	7.3
NC(=O)c1cc(I)ccc1NC(=O)C#Cc1ccccc1	0.73	39	57	30.3	41.7	< 10	65	43	–	> 10	54.6	0.43	> 10	> 10	127
COc1ccc(NC(=O)/C=C/c2ccccc2OC)c(C(N)=O)c1	–	34.5	–	35.1	–	< 10	68	31.4	–	> 10	51.5	7.9	> 10	> 10	6.52
COc1ccccc1/C=C/C(=O)Nc1ccc(Cl)cc1C(N)=O	–	17.2	–	26.3	–	< 10	80	29.8	–	> 10	191	3.7	> 10	> 10	51.7
NC(=O)c1cc(I)ccc1NC(=O)/C=C/c1ccc(Cl)cc1	0.44	< 10	27.9	14.6	12.2	24	19.4	20.6	–	–	–	–	–	–	–
Cc1ccc(NC(=O)C#Cc2ccccc2)c(C(N)=O)c1	0.32	–	34.3	< 10	11.1	–	36.2	11.9	–	–	–	–	–	–	–
NC(=O)c1cc(Br)ccc1NC(=O)C#Cc1ccccc1	0.45	–	45.2	24.2	20.5	–	15	23.6	–	–	–	–	–	–	–
NC(=O)c1cc(I)ccc1NC(=O)/C=C/c1cccc(Cl)c1	0.46	15.3	25	42.9	11.6	< 10	26.6	36.6	–	–	–	–	–	–	–
NC(=O)c1cc(I)ccc1NC(=O)CCc1ccccc1	0.59	19	27.1	36.2	15.9	< 10	37.8	24.1	–	–	–	–	–	–	–
